Patent US11339177B2, “Heteroaryl compounds as inhibitors of necrosis, composition and method using the same” (ACCRO BIOSCIENCE INC., priority 2017, dated 2022)

What was measured:
HT29 cells = assay: Necroptosis assay in HT29 cells (TNF-α, Smac mimetic, z-VAD; cell viability); assay type: cell-based; settings: Homo sapiens, HT-29; TNF-α (40 ng/mL), Smacmimetic (100 nM), z-VAD (20 μM), 48 hours
Procedure: Human colon cancer HT29 cells were used in a necroptosis assay. For this assay, HT29 cells were added to 96-well plates and then were pre-treated with 10 μM of the test compound for one hour. Then the cells were treated with TNF-α (40 ng/mL), Smacmimetic (100 nM) and z-VAD (20 μM) for 48 hours, and the viability of cells was quantified. DMSO pretreatment group was used as negative controls, Nec-1 pretreatment group was used as positive controls.
In Table 2, (1) “ND” indicates “not detected;” (2) Explanation for inhibition %: Taking Compound B14 as an example, its inhibition % was 30% (50 nM). It means that the when Compound B14 at a concentration of 50 nM was used in the HT29 Cell Assay, the necrosis of cells were inhibited at 30%.

L929 cells = assay: Necroptosis assay in L929 cells (TNF-α, z-VAD; cell viability by ATP levels); assay type: cell-based; settings: Mus musculus, TNF-α (40 ng/mL), z-VAD (20 μM), 48 hours
Procedure: […] Then the cells were treated with TNF-α (40 ng/mL) and z-VAD (20 μM) for 48 hours, and the viability of cells was quantified by detecting adenosine triphosphate (ATP) levels. DMSO pretreatment group was used as negative controls, Nec-1 pretreatment group was used as positive controls.

Row | Structure (SMILES) | IC50 (HT29 cells) | IC50 (L929 cells)
1 | Nc1nc2cc(-c3cnc4c(c3)N(C(=O)OC3CCCCC3)CCO4)ccn2n1 [Compound B4] | 90 nM | 
2 | O=C(Nc1nc2ccc(-c3cnc4c(c3)N(C(=O)OC3CCOCC3)CCC4)cc2s1)C1CC1 [Compound B50, tetrahydro-2H-pyran-4-yl-7-(2-(cyclopropanecarboxamido)benzo[d]thiazol-6-yl)-3,4-dihydro-1,5-naphthyridine-1(2H)-carboxylate] | 1.5 nM | 
3 | CNC(=O)Nc1nc2ccc(-c3cnc4c(c3)N(C(=O)OCC3CC3)CC4)cc2s1 [Compound B73] | 1.8 nM | 
4 | O=C(Nc1cn2cc(-c3cnc4c(c3)N(C(=O)OCC3CC3)CC4)ccc2n1)C1CC1 [Compound B77] | 1.7 nM | 
5 | Nc1cn2nc(-c3cnc4c(c3)N(C(=O)OC3CCCCC3)CCO4)ccc2n1 [Compound B11] | 500 nM | 8.9 nM
6 | CC(=O)Nc1nc2ccc(-c3cnc4c(c3)N(C(=O)OC3CCCCC3)CCN4)cc2s1 [Compound B40, Cyclohexyl-7-(2-acetamidobenzo[d]thiazol-6-yl)-3,4-dihydropyrido[2,3-b]pyrazine-1(2H)-carboxylate] | 24 nM | 
7 | CC(=O)Nc1nc2ccc(-c3cnc4c(c3)N(C(=O)OC3CCCCCC3)CCO4)cc2s1 [Compound B26] | 3.2 nM | 
8 | CC(=O)Nc1nc2ccc(-c3cnc4c(c3)N(C(=O)OC3CCOCC3)CCN4C)cc2s1 [Compound B44] | 95 nM | 
9 | CC(=O)Nc1nc2ccc(-c3cnc4c(c3)N(C(=O)OC3CCCCC3)CCC4)cc2s1 [Compound B48, cyclohexyl-7-(2-acetamidobenzo[d]thiazol-6-yl)-3,4-dihydro-1,5-naphthyridine-1(2H)-carboxylate] | 2.4 nM | 
10 | O=C(Nc1nc2ccc(-c3cnc4c(c3)N(C(=O)OCC3CC3)CC4)nc2s1)C1CC1 [Compound B76] | 2.4 nM | 
11 | O=C(Nc1nc2ccc(-c3cnc4c(c3)N(C(=O)OC3CCOCC3)CC4)cc2s1)C1CC1 [Compound B54] | 2 nM | 
12 | CNCC(C)OC(=O)N1CCc2ncc(-c3ccc4nc(NC(=O)C5CC5)sc4c3)cc21 (centres unmarked) [Compound B79] | 16 nM | 
13 | CC(=O)Nc1cn2cc(-c3cnc4c(c3)N(C(=O)OC3CCOCC3)CC4)ccc2n1 [Compound B55] | 49 nM | 
14 | O=C(Nc1nc2ccc(-c3cnc4c(c3)N(C(=O)OC3COC3)CC4)cc2s1)C1CC1 [Compound B78, Oxetan-3-yl-6-(2-(cyclopropanecarboxamido)benzo[d]thiazol-6-yl)-2,3-dihydro-1H-pyrrolo[3,2-b]pyridine-1-carboxylate] | 6.7 nM | 
15 | CC(=O)Nc1nc2ccc(-c3cnc4c(c3)N(C(=O)OC3COCCOC3)CCO4)cc2s1 [Compound B27] | 132 nM | 
16 | CC(=O)Nc1nc2ccc(-c3cnc4c(c3)N(C(=O)OC3CCCCC3)CCN4C3CC3)cc2s1 [Compound B47] | 157 nM | 
17 | CC(=O)Nc1nc2ccc(-c3cnc4c(c3)N(C(=O)OC3CCCCC3)CC4)cc2s1 [Compound B52] | 5 nM | 
18 | CC(=O)Nc1cn2nc(-c3cnc4c(c3)N(C(=O)OC3CCCCC3)CCO4)ccc2n1 [Compound B12] | 11 nM | 
19 | CNC(=O)Nc1cn2cc(-c3cnc4c(c3)N(C(=O)OCC3CC3)CC4)ccc2n1 [Compound B75] | 19 nM | 
20 | CC(=O)Nc1nc2ccc(-c3cnc4c(c3)N(C(=O)CC3CCOCC3)CC4)cc2s1 [Compound B61] | 39 nM | 
21 | O=C(Nc1nc2ccc(-c3cnc4c(c3)N(C(=O)OC3CCCCC3)CCO4)nc2s1)C1CC1 [Compound B32] | 0.9 nM | 
22 | CC(=O)Nc1nc2ccc(-c3cnc4c(c3)N(C(=O)OC3CCCCC3)CCO4)nc2s1 [Compound B31] | 8.5 nM | 
23 | CC(=O)Nc1nc2ccc(-c3cnc4c(c3)N(C(=O)OC3CCOCC3)CCN4)cc2s1 [Compound B41] | 110 nM | 
24 | CC(=O)Nc1nc2ccc(-c3cnc4c(c3)N(C(=O)CC3CCCCC3)CCO4)cc2s1 [Compound B29] | 27 nM | 
25 | CCN1CCN(C(=O)OC2CCCCC2)c2cc(-c3ccc4nc(NC(C)=O)sc4c3)cnc21 [Compound B46] | 70 nM | 
26 | CC(C)(C)OC(=O)Nc1cn2cc(-c3cnc4c(c3)N(C(=O)OC3CCCCC3)CCO4)ccc2n1 [Compound B10] | 5 nM | 

Row | Structure (SMILES) | IC50 (HT29 cells) | IC50 (L929 cells)
27 | O=C(Nc1cn2cc(-c3cnc4c(c3)N(C(=O)CC3CCOCC3)CC4)ccc2n1)C1CC1 [Compound B64] | 53 nM | 
28 | O=C1CCn2c(nc3ccc(-c4cnc5c(c4)N(C(=O)OC4CCCCC4)CCO5)cc32)N1 [Compound B33, Cyclohexyl7-(2-oxo-1,2,3,4-tetrahydrobenzo[4,5]imidazo[1,2-a]pyrimidin-7-yl)-2,3-dihydro-1H-pyrido[2,3-b][1,4]oxazine-1-carboxylate] | 15 nM | 
29 | O=C1Cn2c(nc3ccc(-c4cnc5c(c4)N(C(=O)OC4CCCCC4)CCO5)cc32)N1 [Compound B34] | 2300 nM | 
30 | CC(=O)Nc1nc2ccc(-c3cnc4c(c3)N(C(=O)OC3CCCCC3)CCO4)cc2s1 [Compound B2, Cyclohexyl-7-(2-acetamidobenzo[d]thiazol-6-yl)-2,3-dihydro-1H-pyrido[2,3-b][1,4]oxazine-1-carboxylate] | 2 nM | 
31 | CC(C)(C)OC(=O)Nc1nc2ccc(-c3cnc4c(c3)N(C(=O)OC3CCOCC3)CCO4)cc2s1 [Compound B17, tetrahydro-2H-pyran-4-yl-7-(2-((tert-butoxycarbonyl)amino)benzo[d]thiazol-6-yl)-2,3-dihydro-1H-pyrido[2,3-b][1,4]oxazine-1-carboxylate] | 26 nM | 
32 | CNC(=O)Nc1nc2ccc(-c3cnc4c(c3)N(C(=O)OCC3CC3)CC4)nc2s1 [Compound B74] | 23 nM | 
33 | O=C(Nc1cn2nc(-c3cnc4c(c3)N(C(=O)OC3CCOCC3)CC4)ccc2n1)C1CC1 [Compound B58] | 17 nM | 
34 | CC(=O)Nc1ccc2cc(-c3cnc4c(c3)N(C(=O)OC3CCCCC3)CCO4)ccc2n1 [Compound B80, Cyclohexyl7-(2-acetamidoquinolin-6-yl)-2,3-dihydro-1H-pyrido[2,3-b][1,4]oxazine-1-carboxylate] | 1000 nM | 
35 | CN1CCN(C(=O)OC2CCOCC2)c2cc(-c3ccc4nc(NC(=O)C5CC5)sc4c3)cnc21 [Compound B45] | 18 nM | 
36 | CC(=O)Nc1nc2ccc(-c3cnc4c(c3)N(C(=O)OC3CCCCC3)CCN4C)cc2s1 [Compound B43, cyclohexyl7-(2-acetamidobenzo[d]thiazol-6-yl)-4-methyl-3,4-dihydropyrido[2,3-b]pyrazine-1(2H)-carboxylate] | 13 nM | 
37 | O=C(Nc1cn2cc(-c3cnc4c(c3)N(C(=O)OC3CCOCC3)CC4)ccc2n1)C1CC1 [Compound B56] | 4.6 nM | 
38 | O=C(Nc1nc2ccc(-c3cnc4c(c3)N(C(=O)OC3CCOCC3)CCN4)cc2s1)C1CC1 [Compound B42] | 38 nM | 
39 | Nc1nc2ccc(-c3cnc4c(c3)N(C(=O)OC3CCCCC3)CCO4)cn2n1 [Compound B6] | 90 nM | 
40 | CC(=O)Nc1nc2ccc(-c3cnc4c(c3)N(C(=O)OC3CCOCC3)CCC4)cc2s1 [Compound B49] | 11.4 nM | 
41 | O=C(Nc1nc2ccc(-c3cnc4c(c3)N(C(=O)OC3CCNCC3)CC4)cc2s1)C1CC1 [Compound B67, Piperidin-4-yl-6-(2-(cyclopropanecarboxamido)benzo[d]thiazol-6-yl)-2,3-dihydro-1H-pyrrolo[3,2-b]pyridine-1-carboxylate] | 300 nM | 
42 | CC(=O)Nc1nc2cc(-c3cnc4c(c3)N(C(=O)OC3CCCCC3)CCO4)ccn2n1 [Compound B5] | 42 nM | 
43 | CNC(=O)Nc1nc2ccc(-c3cnc4c(c3)N(C(=O)OC3CCOCC3)CC4)nc2s1 [Compound B71] | 33.4 nM | 
44 | CC(=O)Nc1nc2ccc(-c3cnc4c(c3)N(C(=O)OC3CCOCC3)CC4)cc2s1 [Compound B53, tetrahydro-2H-pyran-4-yl6-(2-acetamidobenzo[d]thiazol-6-yl)-2,3-dihydro-1H-pyrrolo[3,2-b]pyridine-1-carboxylate] | 4.7 nM | 
45 | CC(=O)Nc1nc2ccc(-c3cnc4c(c3)N(C(=O)CC3CCOCC3)CCO4)cc2s1 [Compound B36] | 530 nM | 
46 | CNC(=O)Nc1cn2cc(-c3cnc4c(c3)N(C(=O)OC3CCOCC3)CC4)ccc2n1 [Compound B72] | 48.1 nM | 
47 | O=C(Nc1nc2ccc(-c3cnc4c(c3)N(C(=O)OC3CCOCC3)CCC4)nc2s1)C1CC1 [Compound B51] | 7.2 nM | 
48 | O=C(Nc1nc2ccc(-c3cnc4c(c3)N(C(=O)CC3CCOCC3)CC4)cc2s1)C1CC1 [Compound B62, N-(6-(1-(2-(tetrahydro-2H-pyran-4-yl)acetyl)-2,3-dihydro-1H-pyrrolo[3,2-b]pyridin-6-yl)benzo[d]thiazol-2-yl)cyclopropanecarboxamide] | 1.9 nM | 
49 | CC(=O)Nc1nc2ccc(-c3cnc4c(c3)N(C(=O)OC3CCCCC3)CC(=O)N4)cc2s1 [Compound B39, Cyclohexyl-7-(2-acetamidobenzo[d]thiazol-6-yl)-3-oxo-3,4-dihydropyrido[2,3-b]pyrazine-1(2H)-carboxylate] | 2700 nM | 
50 | O=C(Nc1nc2ccc(-c3cnc4c(c3)N(C(=O)OC3CCOCC3)CC4)nc2s1)C1CC1 [Compound B59, tetrahydro-2H-pyran-4-yl6-(2-(cyclopropanecarboxamido)thiazolo[5,4-b]pyridin-5-yl)-2,3-dihydro-1H-pyrrolo[3,2-b]pyridine-1-carboxylate] | 7 nM | 
51 | CC(=O)Nc1nc2ccc(-c3cnc4c(c3)N(C(=O)CC(C)(C)C)CCO4)cc2s1 [Compound B30] | 186 nM | 
52 | CC(=O)Nc1nc2ccc(-c3cnc4c(c3)N(C(=O)NC3CCCCC3)CCO4)cc2s1 [Compound B28] | 39 nM | 
